The record followed here is patent US6214856A, “Indolecarboxamides, pharmaceutical compositions and methods of inhibiting calpain” (SmithKline Beecham Corporation, priority 1999, dated 2001).

For orientation: IC50 means the concentration needed to halve the response being measured.

This assay has as its system calpain. The experiment in a line: inhibition of calpain in vitro (rate of hydrolysis of synthetic fluorogenic substrates). Type of assay: biochemical. The note with it: percent decrease in rate of substrate hydrolysis. Here is the method: The assays were performed using synthetic fluorogenic substrates. Inhibition of enzyme activity was calculated on the percent decrease in the rate of substrate hydrolysis in the presence of inhibitor relative to the rate in its absence. IC50s (nM) were calculated.
For `COc1cc2cc(C(=O)N[C@H](C=O)Cc3ccccc3)[nH]c2cc1OCc1ccccc1` [Example 3, (S)-N-(1-formyl-2-phenylethyl)-5-methoxy-6-(phenylmethoxy)-2-indolecarboxamide], 135 nM corresponded to half-maximal inhibition (IC50).
In the case of `O=C[C@H](Cc1ccccc1)NC(=O)c1cc2ccccc2n1Cc1ccccc1` [Example 6, (S)-N-(1-formyl-2-phenylethyl)-1-(phenylmethyl)-2-indolecarboxamide] it was 500 nM; in that of `O=C[C@H](Cc1ccccc1)NC(=O)c1cc2ccccc2[nH]1` [Example 2, (S)-N-(1-formyl-2-phenylethyl)-2-indolecarboxamide], 600 nM.
In the case of `Cc1c(C(=O)N[C@H](C=O)Cc2ccccc2)n(Cc2ccccc2)c2ccccc12` [Example 8, (S)-N-(1-formyl-2-phenylethyl)-3-methyl-1-(phenylmethyl)-2-indolecarboxamide] it was 30 nM.
In the case of `Cn1c(C(=O)N[C@H](C=O)Cc2ccccc2)cc2ccccc21` [Example 1, (S)-N-(1-formyl-2-phenylethyl)-1-methyl-2-indolecarboxamide], the IC50 amounted to 500 nM.
Turning to `O=C[C@H](Cc1ccccc1)NC(=O)c1cc2cc(Br)ccc2[nH]1` [Example 4, (S)-5-bromo-N-(1-formyl-2-phenylethyl)-2-indolecarboxamide], the IC50 came out at 230 nM.
The result for `CS(=O)(=O)n1c(C(=O)N[C@H](C=O)Cc2ccccc2)cc2ccccc21` [Example 5, (S)-N-(1-formyl-2-phenylethyl)-1-(methylsulfonyl)-2-indolecarboxamide] reads 600 nM; that for `COc1ccc2cc(C(=O)N[C@H](C=O)Cc3ccccc3)[nH]c2c1` [Example 7, (S)-N-(1-formyl-2-phenylethyl)-6-methoxy-2-indolecarboxamide], 600 nM.
